For 10 molecules, TGI and GI50 results are on record in PubChem BioAssay (NCI).

Some test systems named below: SK-MEL-2 melanoma; OVCAR-4 ovarian; UO-31 renal; NCI-H226 lung; NCI-H522 lung; ACHN renal; HCT-116 colon; RPMI-8226 leukemia; U251 CNS; MCF7 breast; MDA-N.
What all share (assay): inhibition of tumour cell growth, NCI panel, 48 h

Several values for one entry are separate records, joined by “and”; a condition that tells them apart may be missing. Equal entries are not always repeated.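 All cell lines were grown in 96-well plates and treated with compound for 48 hours. Abbreviation: GI50, concentration required for 50% inhibition of growth. TGI: total growth inhibition.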 A value given as a limit tells only on which side of the number the result lay.

With `O=c1[nH]c(Nc2cccc(CO)c2)nc2nc[nH]c12`, the TGI in the experiment on SK-MEL-2 melanoma, with OVCAR-4 ovarian, with UO-31 renal, with NCI-H226 lung, in the experiment on NCI-H522 lung and in the experiment on ACHN renal was > 100 µM throughout. Further, the TGI in the experiment on HCT-116 colon, in the experiment with RPMI-8226 leukemia, in the experiment on U251 CNS, in the experiment with MCF7 breast and with MDA-N was > 100 µM each time.
Take `CC(=O)OC1C(COC(=O)c2ccccc2)OC(Nc2ncc(-c3ccc(Br)cc3)s2)C(OC(=O)c2ccccc2)C1OC(=O)c1ccccc1` (configuration not stated): the TGI in the experiment on SK-MEL-2 melanoma was 35.3 µM; in the experiment on OVCAR-4 ovarian it was > 100 µM; with UO-31 renal it was > 100 µM; in the experiment on NCI-H226 lung, > 100 µM; in the experiment on NCI-H522 lung, > 100 µM; in the experiment with ACHN renal, > 100 µM. For the same molecule, the TGI in the experiment on HCT-116 colon, in the experiment on RPMI-8226 leukemia, in the experiment with U251 CNS, in the experiment on MCF7 breast and in the experiment with MDA-N was > 100 µM throughout.
Regarding `Cn1c2ccccc2c(=O)c2c(O)cc3c(c21)C=CC1(CCCCC1)O3`, the TGI in the experiment with SK-MEL-2 melanoma, in the experiment on OVCAR-4 ovarian, in the experiment on UO-31 renal, in the experiment on NCI-H226 lung, in the experiment on NCI-H522 lung and with ACHN renal was > 10 µM in each case. Moreover, the TGI with HCT-116 colon, with RPMI-8226 leukemia, with U251 CNS, in the experiment on MCF7 breast and in the experiment with MDA-N was > 10 µM throughout.
In the case of `Cc1c2c(OCC3CCCCO3)nn(C)c(=O)c2c(C)n1-c1ccccc1` (configuration not stated), the TGI in the experiment on SK-MEL-2 melanoma came out at 39.4 µM; in the experiment with OVCAR-4 ovarian, 32.8 µM; in the experiment on UO-31 renal, 31.2 µM; with NCI-H226 lung it was 42.7 µM; in the experiment on NCI-H522 lung it was 34.9 µM; in the experiment on ACHN renal it was 31.1 µM. The TGI in the experiment with HCT-116 colon is 31.6 µM; with RPMI-8226 leukemia, > 100 µM; in the experiment with U251 CNS, 31.2 µM; with MCF7 breast it was 30.3 µM; in the experiment with MDA-N it was 35.8 µM.
Take `O=C(c1ccncc1)C1C(=O)c2ccccc2C1C1(O)c2ccccc2CC1C(O)c1ccncc1` (configuration not stated): the TGI was 57.3 µM with SK-MEL-2 melanoma; > 100 µM in the experiment on OVCAR-4 ovarian; 29 µM in the experiment with UO-31 renal; > 100 µM in the experiment on NCI-H226 lung; > 100 µM with NCI-H522 lung; > 100 µM in the experiment on ACHN renal. In addition, the TGI in the experiment with HCT-116 colon was > 100 µM; with RPMI-8226 leukemia, 90.2 µM; with U251 CNS, > 100 µM; in the experiment with MCF7 breast, > 100 µM; in the experiment with MDA-N, 38.9 µM.
For the molecule `O=C1CSC2=NC3=C(COC/C3=C\c3ccc(Br)cc3)C(c3ccc(Br)cc3)N12` (configuration not stated), the TGI in the experiment with SK-MEL-2 melanoma, in the experiment on OVCAR-4 ovarian, in the experiment on UO-31 renal, with NCI-H226 lung, with NCI-H522 lung and with ACHN renal was > 100 µM throughout. Also, the TGI with HCT-116 colon, in the experiment with RPMI-8226 leukemia, with U251 CNS, in the experiment with MCF7 breast and with MDA-N was > 100 µM each time.
Consider `C=C(CN(C)C)C(=O)c1ccccc1[N+](=O)[O-]`, for which the GI50 in the experiment on SK-MEL-2 melanoma is 17.4 µM; with NCI-H226 lung, 20.9 µM; in the experiment on ACHN renal, 3.79 µM; in the experiment with HCT-116 colon, 7.18 µM; in the experiment on RPMI-8226 leukemia, 15.1 µM and 2.55 µM; in the experiment with U251 CNS, 17.8 µM. Also, the figures for the GI50 in the experiment with MCF7 breast and in the experiment with MDA-N were 5.02 µM and 10.6 µM, respectively. In addition, the TGI in the experiment on SK-MEL-2 melanoma is 33.2 µM and 35 µM; in the experiment with OVCAR-4 ovarian, 41.1 µM; in the experiment on UO-31 renal it was 32.2 µM; with NCI-H226 lung, > 58.3 µM and 47 µM; in the experiment with NCI-H522 lung it was 7.74 µM; in the experiment on ACHN renal, 29.5 µM and 14.8 µM. Also, the TGI was 31.6 µM and 38.3 µM with HCT-116 colon; 54.5 µM and 31.8 µM in the experiment with U251 CNS; 31.1 µM and 24.5 µM in the experiment with MCF7 breast; 27.9 µM and 25.3 µM in the experiment on MDA-N.
For the molecule `Cc1ccc(/C=C2\Cc3c(C)cc(C)cc3C2=O)c(C(=O)O)c1`, the TGI was 83.6 µM in the experiment with SK-MEL-2 melanoma; > 100 µM in the experiment with OVCAR-4 ovarian; > 100 µM in the experiment with UO-31 renal; 71.4 µM in the experiment with NCI-H226 lung; > 100 µM in the experiment with NCI-H522 lung; > 100 µM in the experiment on ACHN renal. For the same molecule, the TGI in the experiment with HCT-116 colon was > 100 µM; with RPMI-8226 leukemia it was 53.1 µM; with U251 CNS, > 100 µM; in the experiment on MCF7 breast, > 100 µM; with MDA-N, > 100 µM.
With `C#CCN(Cc1ccc2nc(OC)c(OC)nc2c1)c1cc(OC)c(OC)c(OC)c1`, the TGI with SK-MEL-2 melanoma was > 87.8 µM; with OVCAR-4 ovarian, > 46.9 µM; in the experiment on UO-31 renal, > 89.1 µM; in the experiment with NCI-H226 lung, 60.6 µM; in the experiment with NCI-H522 lung, 36.1 µM; with ACHN renal it was > 100 µM. The TGI in the experiment with HCT-116 colon is > 68.8 µM; in the experiment on RPMI-8226 leukemia, 28.3 µM; in the experiment on U251 CNS it was > 80.2 µM; in the experiment on MCF7 breast, > 66 µM; in the experiment on MDA-N, 45.5 µM.
For the molecule `COc1cc2c(cc1Cc1c(F)cccc1Cl)nc(-c1c(F)cccc1Cl)n2Cc1c(F)cccc1Cl`, the TGI in the experiment with SK-MEL-2 melanoma was 47.5 µM; in the experiment on OVCAR-4 ovarian, > 100 µM; with UO-31 renal, > 100 µM; in the experiment with NCI-H226 lung it was > 100 µM; in the experiment on NCI-H522 lung, 59 µM; in the experiment with ACHN renal it was > 100 µM. The TGI in the experiment on HCT-116 colon, with RPMI-8226 leukemia, in the experiment on U251 CNS, in the experiment on MCF7 breast and in the experiment with MDA-N was > 100 µM each time.
